Measured values as given in the NIST ThermoML archive (doi:10.1016/j.jct.2016.09.007).
± gives the expanded uncertainty stated by the source.

Key:
[1] = xn = mol fraction of the nth substance listed; details: 93.2 kPa, Liquid, x2 = 0; for speed of sound: Frequency=3 MHz, Sing-around technique in a fixed-path interferometer; for mass density: Vibrating tube method
[2] = 93.2 kPa, Liquid; for speed of sound: Frequency=3 MHz, Sing-around technique in a fixed-path interferometer; for mass density: Vibrating tube method

SMILES | speed of sound ([1]; 293.15 K) | mass density ([1]; 293.15 K) | speed of sound ([1]; 298.15 K) | mass density ([1]; 298.15 K) | speed of sound ([1]; 303.15 K) | mass density ([1]; 303.15 K) | speed of sound ([1]; 308.15 K) | mass density ([1]; 308.15 K) | speed of sound ([1]; 313.15 K) | mass density ([1]; 313.15 K) | speed of sound ([2]; 293.15 K) | mass density ([2]; 293.15 K) | speed of sound ([2]; 298.15 K) | mass density ([2]; 298.15 K) | speed of sound ([2]; 303.15 K) | mass density ([2]; 303.15 K) | speed of sound ([2]; 308.15 K) | mass density ([2]; 308.15 K) | speed of sound ([2]; 313.15 K) | mass density ([2]; 313.15 K)
CO [methanol] + CCCC(=O)[O-].CCCC[NH3+] | 1119.1 ± 5.2 m/s | 791.347 ± 4 kg/m3 | 1102.5 ± 5.2 m/s | 786.636 ± 4 kg/m3 | 1086 ± 5.2 m/s | 781.907 ± 4 kg/m3 | 1069.7 ± 5.2 m/s | 777.156 ± 4 kg/m3 | 1053.6 ± 5.2 m/s | 772.385 ± 4 kg/m3 | – | – | – | – | – | – | – | – | – | –
CCO [ethanol] | – | – | – | – | – | – | – | – | – | – | 1161 ± 5.2 m/s | 789.657 ± 4 kg/m3 | 1143.8 ± 5.2 m/s | 785.366 ± 4 kg/m3 | 1126.8 ± 5.2 m/s | 781.043 ± 4 kg/m3 | 1109.9 ± 5.2 m/s | 776.696 ± 4 kg/m3 | 1093.1 ± 5.2 m/s | 772.313 ± 4 kg/m3
CCCO [propan-1-ol] | – | – | – | – | – | – | – | – | – | – | 1223.1 ± 5.3 m/s | 803.625 ± 4 kg/m3 | 1205.8 ± 5.3 m/s | 799.62 ± 4 kg/m3 | 1188.6 ± 5.3 m/s | 795.582 ± 4 kg/m3 | 1171.6 ± 5.3 m/s | 791.511 ± 4 kg/m3 | 1154.9 ± 5.3 m/s | 787.407 ± 4 kg/m3
CCCC(=O)[O-].CCCC[NH3+] [n-butylammonium butanoate] | – | – | – | – | – | – | – | – | – | – | 1431.5 ± 5.3 m/s | 928.794 ± 4 kg/m3 | 1410.3 ± 5.3 m/s | 925.509 ± 4 kg/m3 | 1390.4 ± 5.3 m/s | 922.217 ± 4 kg/m3 | 1371.5 ± 5.3 m/s | 918.88 ± 4 kg/m3 | 1353.6 ± 5.3 m/s | 915.567 ± 4 kg/m3
CCCO [propan-1-ol] + CCCC(=O)[O-].CCCC[NH3+] | 1223.1 ± 5.3 m/s | 803.625 ± 4 kg/m3 | 1205.8 ± 5.3 m/s | 799.62 ± 4 kg/m3 | 1188.6 ± 5.3 m/s | 795.582 ± 4 kg/m3 | 1171.6 ± 5.3 m/s | 791.511 ± 4 kg/m3 | 1154.9 ± 5.3 m/s | 787.407 ± 4 kg/m3 | – | – | – | – | – | – | – | – | – | –
CCCCO [butan-1-ol] | – | – | – | – | – | – | – | – | – | – | 1256.8 ± 5.3 m/s | 809.523 ± 4 kg/m3 | 1239.7 ± 5.3 m/s | 805.71 ± 4 kg/m3 | 1222.8 ± 5.3 m/s | 801.872 ± 4 kg/m3 | 1206.1 ± 5.3 m/s | 798.004 ± 4 kg/m3 | 1189.5 ± 5.2 m/s | 794.103 ± 4 kg/m3
CO [methanol] | – | – | – | – | – | – | – | – | – | – | 1119.1 ± 5.2 m/s | 791.347 ± 4 kg/m3 | 1102.5 ± 5.2 m/s | 786.636 ± 4 kg/m3 | 1086 ± 5.2 m/s | 781.907 ± 4 kg/m3 | 1069.7 ± 5.2 m/s | 777.156 ± 4 kg/m3 | 1053.6 ± 5.2 m/s | 772.385 ± 4 kg/m3
CCCCCO [pentan-1-ol] | – | – | – | – | – | – | – | – | – | – | 1292.8 ± 5.3 m/s | 814.807 ± 4 kg/m3 | 1275.7 ± 5.3 m/s | 811.144 ± 4 kg/m3 | 1258.8 ± 5.3 m/s | 807.455 ± 4 kg/m3 | 1242.1 ± 5.3 m/s | 803.736 ± 4 kg/m3 | 1225.5 ± 5.3 m/s | 799.99 ± 4 kg/m3
CCCCCO [pentan-1-ol] + CCCC(=O)[O-].CCCC[NH3+] | 1292.8 ± 5.3 m/s | 814.807 ± 4 kg/m3 | 1275.7 ± 5.3 m/s | 811.144 ± 4 kg/m3 | 1258.8 ± 5.3 m/s | 807.455 ± 4 kg/m3 | 1242.1 ± 5.3 m/s | 803.736 ± 4 kg/m3 | 1225.5 ± 5.3 m/s | 799.99 ± 4 kg/m3 | – | – | – | – | – | – | – | – | – | –
CCO [ethanol] + CCCC(=O)[O-].CCCC[NH3+] | 1161 ± 5.2 m/s | 789.657 ± 4 kg/m3 | 1143.8 ± 5.2 m/s | 785.366 ± 4 kg/m3 | 1126.8 ± 5.2 m/s | 781.043 ± 4 kg/m3 | 1109.9 ± 5.2 m/s | 776.696 ± 4 kg/m3 | 1093.1 ± 5.2 m/s | 772.313 ± 4 kg/m3 | – | – | – | – | – | – | – | – | – | –
CCCCO [butan-1-ol] + CCCC(=O)[O-].CCCC[NH3+] | 1256.8 ± 5.3 m/s | 809.523 ± 4 kg/m3 | 1239.7 ± 5.3 m/s | 805.71 ± 4 kg/m3 | 1222.8 ± 5.3 m/s | 801.872 ± 4 kg/m3 | 1206.1 ± 5.3 m/s | 798.004 ± 4 kg/m3 | 1189.5 ± 5.2 m/s | 794.103 ± 4 kg/m3 | – | – | – | – | – | – | – | – | – | –
